Chromatographic logP and LogP data for 29 molecules are collected here from US12501900B2, “Heterocyclyl pyridazine as fungicidal compounds” (Bayer Aktiengesellschaft, priority 2018, dated 2025).

Molecules are shown by their SMILES. Read-outs that look alike come from different tables or passages of the source.

The data set in a line: Measurement of LogP values by HPLC on reversed phase columns (EEC directive 79/831 Annex V.A8), methods [a], [b], [c]. In kind it is physicochemical. How it is done: Measurement of Log P values as provided herein was performed according to EEC directive 79/831 Annex V.A8 by HPLC (High Performance Liquid Chromatography) on reversed phase columns with the following methods: • ^[a]
If more than one Log P value is available within the same method, all the values are given and separated by “+”.
Lambda-max-values were determined using UV-spectra from 200 nm to 400 nm and the peak values of the chromatographic signals

Where [1] appears, read: method [a]: LC-UV, acidic range, 0.1% formic acid in water and acetonitrile, Table 7, compounds of formula (3).
The mark [2] stands for this setting: method [a], Table 9, compounds of formula (4).
The mark [3] stands for this setting: method [a]: LC-UV, acidic range, 0.1% formic acid in water and acetonitrile, Table 11, compounds of formula (6).
Setting [4] is: method [a]: LC-UV, acidic range, 0.1% formic acid in water and acetonitrile, Table 3, compounds of formula (1).
Where [5] appears, read: method [a]: LC-UV, acidic range, 0.1% formic acid in water and acetonitrile, Table 15, compounds of formula (9).
Setting [6] is: method [a]: LC-UV, acidic range, 0.1% formic acid in water and acetonitrile, Table 17, compounds of formula (10).
[7] abbreviates: method [a], Table 19, compounds of formula (12), two values joined by & in some cells.

In the case of `Cc1ccc(OCC(N)CON2C(=O)c3ccccc3C2=O)c(C)c1` (racemic) [2-12, 2-[rac-2-amino-3-(2,4-dimethylphenoxy)propoxy]isoindoline-1,3-dione 2,2,2-trifluoroacetate], the chromatographic logP (reversed phase HPLC column, method [a]: LC-UV, acidic range, 0.1% formic acid in water and acetonitrile, Table 5, compounds of formula (2)) stood at 1.7.
Regarding `Cc1ccc(OCC(CON2C(=O)c3ccccc3C2=O)NC(=O)OC(C)(C)C)c(C)c1` (racemic) [2-13, tert-butyl N-[rac-1-[(2,4-dimethylphenoxy)methyl]-2-(1,3-dioxoisoindolin-2-yl)oxy-ethyl]carbamate], the chromatographic logP (method [a]: LC-UV, acidic range, 0.1% formic acid in water and acetonitrile, Table 5, compounds of formula (2)) came out at 4.51.
As for `Cc1ccc(CC(CON2C(=O)c3ccccc3C2=O)NC(=O)c2cc(Cl)nnc2Oc2cccc(C(F)(F)F)c2)c(C)c1` (racemic) [3-16, 6-chloro-N-[rac-1-[(2,4-dimethylphenyl)methyl]-2-(1,3-dioxoisoindolin-2-yl)oxy-ethyl]-3-[3-(trifluoromethyl)phenoxy]pyridazine-4-carboxamide], under setting [1], the chromatographic logP was determined as 5.
Same read-out and setting: the same measure for `Cc1ccc(OCC(CON2C(=O)c3ccccc3C2=O)NC(=O)c2cc(C)nnc2Oc2cccc(C(F)(F)F)c2)c(C)c1` (racemic) [3-33, 6-methyl-N-[rac-1-[(2,4-dimethylphenoxy)methyl]-2-(1,3-dioxoisoindolin-2-yl)oxy-ethyl]-3-[3-(trifluoromethyl)phenoxy]pyridazine-4-carboxamide]: 4.56.
Under setting [2], `Cc1ccc(CC(CON)NC(=O)c2cc(Cl)nnc2Oc2cccc(C(F)(F)F)c2)c(C)c1` (racemic) [4-17, 6-chloro-N-[rac-1-(aminooxymethyl)-2-(2,4-dimethylphenyl)ethyl]-3-[3-(trifluoro-methyl)phenoxy]pyridazine-4-carboxamide] showed a chromatographic logP of 3.37.
Same read-out and setting: the same measure for `Cc1ccc(OCC(CON)NC(=O)c2cc(C)nnc2Oc2cccc(C(F)(F)F)c2)c(C)c1` (racemic) [4-33, 6-methyl-N-[rac-1-(aminooxymethyl)-2-(2,4-dimethylphenoxy)ethyl]-3-[3-(trifluoromethyl)phenoxy]pyridazine-4-carboxamide]: 3.13.
The molecule `Cc1ccc(CC(CON2C(=O)c3ccccc3C2=O)NC(=O)c2cc(Cl)nnc2Cl)c(C)c1` (racemic) [6-01, 3,6-dichloro-N-[rac-1-[(2,4-dimethylphenyl)methyl]-2-(1,3-dioxoisoindolin-2-yl)oxy-ethyl]pyridazine-4-carboxamide] returned a chromatographic logP under setting [3] of 3.72.
On the same count and under the same terms, the same measure for `Cc1ccc(CC(CON)NC(=O)c2cc(Cl)nnc2Cl)c(C)c1` (racemic) [6-02, 3,6-dichloro-N-[rac-1-(aminooxymethyl)-2-(2,4-dimethylphenyl)ethyl]pyridazine-4-carboxamide]: 1.93.
On to `Cc1ccc(CC2CON=C(c3cc(Cl)nnc3Cl)N2)c(C)c1` (racemic) [7-01, rac-3-(3,6-dichloropyridazin-4-yl)-5-[(2,4-dimethylphenyl)methyl]-5,6-dihydro-4H-1,2,4-oxadiazine], for which the chromatographic logP (method [a]: LC-UV, acidic range, 0.1% formic acid in water and acetonitrile, Table 13, compounds of formula (7)) came out at 2.98.
As for `Cc1cc(C2=NOCC(O)N2)c(Oc2cccc(C(F)(F)F)c2)nn1` (racemic) [14-01, rac-3-[6-methyl-3-[3-(trifluoromethyl)phenoxy]pyridazin-4-yl]-5,6-dihydro-4H-1,2,4-oxadiazin-5-ol], the chromatographic logP (method [a]: LC-UV, acidic range, 0.1% formic acid in water and acetonitrile, Table 23, compounds of formula (14)) was 1.59.
Turning to `Cc1c(Cl)nnc(Oc2cccc(C3CC3)c2F)c1C(=O)O` [1-02, 6-chloro-3-(3-cyclopropyl-2-fluoro-phenoxy)-5-methyl-pyridazine-4-carboxylic acid], the chromatographic logP under setting [4] is 1.84.
`CON(C)C(=O)c1cc(C)nnc1Oc1cccc(C(F)(F)F)c1` [1-03]: the LogP under setting [4] is 2.33^[a].
`CON(C)C(=O)c1cc(Cl)nnc1Oc1cccc(C(F)(F)F)c1` [1-07, 6-chloro-N-methoxy-N-methyl-3-[3-(trifluoromethyl)phenoxy]pyridazine-4-carboxamide]: under “reversed phase HPLC column, method [a]: LC-UV, acidic range, 0.1% formic acid in water and acetonitrile, Table 3, compounds of formula (1)”, the chromatographic logP amounted to 2.9.
`Cc1cc(C#N)c(Oc2cccc(C(F)(F)F)c2)nn1` [9-02, 6-methyl-3-[3-(trifluoromethyl)phenoxy]pyridazine-4-carbonitrile] displayed a chromatographic logP under setting [5] of 2.84.
On to `N#Cc1cc(Cl)nnc1Oc1cccc(C(F)(F)F)c1` [9-03, 6-chloro-3-[3-(trifluoromethyl)phenoxy]pyridazine-4-carbonitrile], for which the chromatographic logP under setting [5] was 3.25.
Take `COc1cccc(Oc2nnc(Cl)cc2C#N)c1` [9-08]: under setting [5], the LogP is 2.75^[a].
`Cc1cc(C(N)=NO)c(Oc2cccc(C(F)(F)F)c2)nn1` [10-02, N′-hydroxy-6-methyl-3-[3-(trifluoromethyl)phenoxy]pyridazine-4-carboxamidine] had a chromatographic logP under setting [6] of 1.69.
Turning to `NC(=NO)c1cc(Cl)nnc1Oc1cccc(Cl)c1` [10-04], the LogP under setting [6] was 2.00^[a].
On to `NC(=NO)c1cc(Cl)nnc1Oc1cccc(Br)c1F` [10-05], for which, under setting [6], the LogP was 2.21^[a].
Still for that read-out and setting: the same measure for `NC(=NO)c1cc(Cl)nnc1Oc1cccc(C2CC2)c1F` [10-07]: 2.34^[a].
Take `NC(=NO)c1cc(Cl)nnc1Oc1cccc(C2CC2)c1` [10-08]: the LogP under setting [6] is 2.19^[a].
The same measure, in the same setting: the same measure for `NC(=NO)c1cc(Cl)nnc1Oc1cccc(C(F)F)c1F` [10-09]: 1.91^[a].
`Cc1cc(C(N)=NOCC(=O)c2ccc(Cl)cc2)c(Oc2cccc(C(F)(F)F)c2)nn1` [12-03, N′-[2-(4-chlorophenyl)-2-oxo-ethoxy]-6-methyl-3-[3-(trifluoro-methyl)phenoxy]pyridazine-4-carboxamidine] came in with a chromatographic logP under setting [7] of 3.42.
Still for that read-out and setting: with `COc1ccc(C(=O)C(F)(F)ON=C(N)c2cc(C)nnc2Oc2cccc(C(F)(F)F)c2)cc1` [12-14, N′-[1,1-difluoro-2-(4-methoxyphenyl)-2-oxo-ethoxy]-6-methyl-3-[3-(trifluoro-methyl)phenoxy]pyridazine-4-carboxamidine] the figure was 3.13.
Molecule `C=CCON=C(N)c1cc(C)nnc1Oc1cccc(C(F)(F)F)c1` [13-01, N′-allyloxy-6-methyl-3-[3-(trifluoromethyl)phenoxy]pyridazine-4-carboxamidine] yielded a chromatographic logP (method [a]: LC-UV, acidic range, 0.1% formic acid in water and acetonitrile, Table 21, compounds of formula (13)) of 2.88.
The molecule `O=Cc1cc(Cl)nnc1Oc1cccc(C(F)(F)F)c1` [16-01, 6-chloro-3-[3-(trifluoromethyl)phenoxy]pyridazine-4-carbaldehyde] registered a chromatographic logP (method [a]: LC-UV, acidic range, 0.1% formic acid in water and acetonitrile, Table 25, compound of formula (16)) of 2.04.
In turn, `O/N=C/c1cc(Cl)nnc1Oc1cccc(C(F)(F)F)c1` [17-01, 6-chloro-3-[3-(trifluoromethyl)phenoxy]pyridazine-4-carbaldehyde oxime] had a chromatographic logP (reversed phase HPLC column, method [a]: LC-UV, acidic range, 0.1% formic acid in water and acetonitrile, Table 27, compound of formula (17)) of 2.88.
`Cc1ccc(CC(CCl)NC(=NO)c2cc(Cl)nnc2Oc2cccc(C(F)(F)F)c2)c(C)c1` (centres unmarked) [20-01, 6-chloro-N-[1-(chloromethyl)-2-(2,4-dimethylphenyl)ethyl]-N′-hydroxy-3-[3-(trifluoromethyl)phenoxy]pyridazine-4-carboxamidine]: where the note is “method [a], Table 29, compounds of formula (20), read-out: Log P”, the chromatographic logP was found to be 4.34.
With `Cc1ccc(CC(CCl)NC(=O)c2cc(Cl)nnc2Oc2cccc(C(F)(F)F)c2)c(C)c1` (centres unmarked) [21-01, 6-chloro-N-[1-(chloromethyl)-2-(2,4-dimethylphenyl)ethyl]-3-[3-(trifluoro-methyl)phenoxy]pyridazine-4-carboxamide], the chromatographic logP (method [a], Table 33, compounds of formula (21)) came out at 5.
